Series [1] in a line: physchem.
Procedure: (§1) To prepare a test solution, about 1 mg of a test product was measured and the isotonic buffer (0.5 mL) was added thereto. The prepared solution was shaken at room temperature for 90 min (shaking conditions: RECIPRO SHAKER SR-1N manufactured by TAITEC, Speed=8), centrifuged (15000 rpm, 5 min, room temperature), and the supernatant after centrifugation was used as a test solution.
(§2) About 1 mg of the test product was accurately measured, dissolved in 0.1% TFA water/acetonitrile=1/1, made the total amount 10 mL, and this was used as a standard solution of the test product.
(§3) The standard solution of the test product and the test solution are analyzed by HPLC (under the analysis conditions described in Table 34), and the solubility of the test product is calculated from the ratio of peak area compared to the standard solution.
(§4) column: Chemcopack Quicksorb (4.6 mmφ×150 mm, 5 μm)
(§5) manufactured by Chemco Scientific Co., Ltd.
(§6) mobile phase: SOLUTION A; 0.1% TFA water, SOLUTION B;
0.1% TFA acetonitrile solution
column temperature: room temperature
(§7) detection wavelength: UV 254 nm, 230 nm (2 wavelength detection)
sample injection volume: 10
Series [2] deals with HLA-A0201 transgenic mouse. The series is described as follows: In vivo CTL induction ability, IFNγ ELISPOT, formula (11) (Experimental Example 13). As to conditions: 250 μg/site with IFA, 17 hr. As for the experimental part:
The compound represented by the formula (11) synthesized in Example 109 was evaluated for the CTL induction ability by an in vivo CTL induction test using an HLA-A0201 transgenic mouse. The compound represented by the formula (11): […]
To evaluate whether CTLs to each of the peptides (SEQ ID NOs: 19 and 88) endogenously presented by cancer cells was induced, the compound represented by the formula (11) was administered to the HLA-A0201 transgenic mouse. That is, it was determined whether IFNγ production was observed by re-stimulation, with the peptide (SEQ ID NO: 19 or 88), of the splenocyte derived from the above-mentioned mouse administered with the compound represented by the formula (11).
Specifically, the compound represented by the formula (11) was dissolved in dimethyl sulfoxide (DMSO) at 80 mg/mL, further diluted with water for injection to 10 mg/mL, and emulsified by mixing with an equal amount of incomplete Freund's adjuvant (IFA). The emulsified compound was intradermally administered to 2 sites at the base of tail of the mouse at 250 μg/site. One week later, the mouse was euthanized with CO2 gas, the spleen was isolated, and splenocytes were prepared. IFNγ ELISPOT assay kit was used for the measurement of IFNγ production. […] The number of spots that developed color was measured by ImmunoSpot Analyzer (manufactured by C.T.L.). […]

In series [3] the test system is HLA-A0201 transgenic mouse. Briefly: In vivo CTL induction ability, IFNγ ELISPOT, formula (5) (Experimental Example 14). As to conditions: 250 μg/site with IFA, 17 hr. As for the experimental part:
The compound represented by the formula (5) synthesized in Example 110 was evaluated for the CTL induction ability by an in vivo CTL induction test using HLA-A0201 transgenic mouse. The compound represented by the formula (5): […]
Specifically, the compound represented by the formula (5) was dissolved in dimethyl sulfoxide (DMSO) at 80 mg/mL, further diluted with water for injection to 10 mg/mL, and emulsified by mixing with an equal amount of incomplete Freund's adjuvant (IFA). The emulsified compound was intradermally administered to 2 sites at the base of tail of the mouse at 250 μg/site. One week later, the mouse was euthanized with CO2 gas, the spleen was isolated, and splenocytes were prepared. IFNγ ELISPOT assay kit was used for the measurement of IFNγ production. On the previous day of splenocyte preparation, an ELISPOT plate was treated with an anti-mouse IFNγ antibody, and blocked with RPMI1640 medium containing 10% FBS the next day. The prepared HLA-A0201 transgenic mouse-derived splenocytes were plated at 0.25×10^6 cells/well on the blocked ELISPOT plate. […] After the culture, the supernatant was removed, and the ELISPOT plate was allowed to develop color according to the attached protocol. The number of spots that developed color was measured by ImmunoSpot Analyzer (manufactured by C.T.L.).

For series [4], the target named is T1, ERAP1 (Homo sapiens, UniProt Q9NZ08). The series is described as follows: Test of trimming of N-terminal amino acid by ERAP1 (Experimental Example 11, Examples 50, 56, 64, 67). The format is biochemical. As to conditions: Proteinase-3 169-177 peptide obtained by ERAP1 trimming; from HPLC AUC. How it is done: The peptides synthesized in Examples 50, 56, 64 and 67 were evaluated for N-terminal amino acid trimming efficiency using ERAP1. 50 μl of ERAP1 solution (10 μg/ml) in pH 8.0, 20 mM Tris.HCl-100 mM NaCl buffer (Tris.HCl buffer) was added to 142 μl of Tris.HCl buffer. 10 mM peptide solution in DMSO (2.0 μl) and 6.0 μL of DMSO were added to the aforementioned ERAP1 solution, and the mixture was blended well and stood at 30° C. […] The peptide to be obtained by trimming was chemically synthesized separately, and analyzed under similar conditions in the absence of the enzyme. […]
T1 sequence (Q9NZ08 whole entry): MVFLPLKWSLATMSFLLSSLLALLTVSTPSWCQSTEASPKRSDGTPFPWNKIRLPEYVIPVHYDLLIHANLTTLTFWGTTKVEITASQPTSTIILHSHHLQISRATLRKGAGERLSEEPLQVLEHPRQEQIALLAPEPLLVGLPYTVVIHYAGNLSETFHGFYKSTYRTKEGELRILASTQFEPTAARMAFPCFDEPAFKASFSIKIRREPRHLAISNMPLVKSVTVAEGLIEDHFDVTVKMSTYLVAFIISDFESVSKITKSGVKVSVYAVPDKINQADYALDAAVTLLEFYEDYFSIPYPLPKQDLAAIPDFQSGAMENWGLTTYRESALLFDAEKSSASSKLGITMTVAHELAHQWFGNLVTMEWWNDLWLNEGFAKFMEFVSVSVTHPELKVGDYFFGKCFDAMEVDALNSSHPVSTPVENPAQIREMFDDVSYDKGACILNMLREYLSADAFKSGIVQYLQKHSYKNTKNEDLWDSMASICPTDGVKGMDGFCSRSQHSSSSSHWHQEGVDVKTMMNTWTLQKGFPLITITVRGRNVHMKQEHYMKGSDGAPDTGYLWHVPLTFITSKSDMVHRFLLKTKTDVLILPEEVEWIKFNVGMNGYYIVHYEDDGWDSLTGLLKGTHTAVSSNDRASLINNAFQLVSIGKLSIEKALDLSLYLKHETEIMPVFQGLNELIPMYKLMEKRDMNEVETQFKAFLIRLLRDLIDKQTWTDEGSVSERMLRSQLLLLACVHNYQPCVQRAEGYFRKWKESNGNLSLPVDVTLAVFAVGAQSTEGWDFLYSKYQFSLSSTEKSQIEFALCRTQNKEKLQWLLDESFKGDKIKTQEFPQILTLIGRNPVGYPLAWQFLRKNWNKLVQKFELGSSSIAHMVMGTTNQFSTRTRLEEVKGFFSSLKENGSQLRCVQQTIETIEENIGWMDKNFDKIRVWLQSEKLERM
pump: UFLC manufactured by Shimadzu […]
solution: 0.1% TFA H2O(A)-0.1% TFA CH3CN(B) […]
detection wavelength: λ=220 nm gradient: concentration of SOLUTION B was raised from 10% to 50% from 0.0 min to 8.5 min

For series [5], the target named is T1, ERAP1. The series is described as follows: Time-course changes of trimming of N-terminal amino acid by ERAP1 (Experimental Example 2). As to conditions: peptide obtained by trimming (SEQ ID NO: 53, 43 or 19), ERAP1 solution 0.5 mg/ml, room temperature. The format is biochemical. As for the experimental part: 20 μl of ERAP1 solution (0.5 mg/ml) in Tris.HCl buffer was added to 172 μl of Tris.HCl buffer. 10 mM peptide solution in DMSO (8.0 μl) was added to the aforementioned ERAP1 solution, and the mixture was blended well and stood at room temperature. […]
pump: UFLC manufactured by Shimadzu column: Shim-pack XR-ODS 3.0 mmi.d.×75 mm solution: 0.05% TFA H2O(A)-0.05% TFA CH3CN(B) […]
detection wavelength: λ=220 nm gradient: Concentration of SOLUTION B was raised from 1.0% 70% from 0.0 min to 5.0 min […]
The peptide to be obtained by the trimming of the N-terminal amino acid(s) by ERAP1 is, […]

Series [6] has as its system HLA-A0201 transgenic mouse. The series is described as follows: In vivo CTL induction ability, IFNγ ELISPOT, Cys-extended peptides (Experimental Example 3). As to conditions: intradermal, 2 sites, 50 μg/site with IFA; splenocytes one week later re-stimulated with Cys non-extended or Cys-extended peptide 10 μg/mL.
Procedure: The CTL induction ability of each peptide extended by cysteine (Cys) (Cys-extended peptide) shown in Table 23 was evaluated by in vivo CTL induction test using an HLA-A0201 transgenic mouse.
HLA-A0201 transgenic mouse (C57BL/6CrHLA-A2.1DR1) is a mouse which is defective in mouse MHC, and expresses a chimera HLA of human MHC HLA-A0201 and mouse MHC H-2D^b, and HLA-DRB1*0101.
The emulsified peptide was intradermally administered to 2 sites at the base of tail of the mouse at 50 μg/site. One week later, the mouse was euthanized with CO2 gas, the spleen was isolated, and splenocytes were prepared. IFNγ ELISPOT assay kit was used for the measurement of IFNγ production. On the previous day of splenocyte preparation, an ELISPOT plate was treated with an anti-mouse IFNγ antibody, and blocked with RPMI1640 medium containing 10% FBS the next day. The prepared HLA-A0201 transgenic mouse-derived splenocytes were plated at 2.5×10^5 cells/well on the blocked ELISPOT plate. […] These splenocytes were cultivated for 20 hr at 37° C., 5% CO2, whereby peptide re-stimulation in vitro was performed. Thereafter, the supernatant was removed, and the ELISPOT plate was allowed to develop color according to the attached protocol. The number of spots that developed color was measured by KS ELISPOT.
Series [7] in a line: Measurement of solubility in isotonic buffer (Experimental Examples 7 and 8).
Procedure: as §1, §2, §3, §4, §5, §6
0.1% TFA acetonitrile solution
column temperature: room temperature
as §7
sample injection volume: 10
Setting [8] is: splenocytes pulsed with SEQ ID NO: 19, 10 μg/mL.

Converted amounts (≈) assume the structure as drawn. Bridge positions count the residues as written; N and C are the ends. Peptide text beside a SMILES is read from it. I, II: the chains in the order shown.

The term solubility denotes the dissolved amount per volume that the medium holds. The low end stands for little dissolved substance, the high end for much dissolved substance. Regarding `CC[C@H](C)[C@H](NC(=O)[C@H](Cc1c[nH]c2ccccc12)NC(=O)[C@H](CCSC)NC(=O)[C@H](CC(C)C)NC(=O)[C@H](CC(C)C)NC(=O)[C@@H](N)CO)C(=O)N[C@H](C(=O)N[C@@H](CCC(N)=O)C(=O)N[C@@H](CSSC[C@H](N)C(=O)NCC(=O)N[C@@H](CC(C)C)C(=O)N[C@@H](Cc1ccc(O)cc1)C(=O)N[C@@H](CC(=O)O)C(=O)NCC(=O)N[C@@H](CCSC)C(=O)N[C@@H](CCC(=O)O)C(=O)N[C@@H](Cc1c[nH]cn1)C(=O)N[C@@H](CC(C)C)C(=O)O)C(=O)O)[C@@H](C)O` [Example 109], the solubility at 90 min came to 0.079 mg/mL (≈ 35.4 µM) in series [1] (pH 6) and 0.7 mg/mL (≈ 314 µM) in series [1] (pH 7.4). In addition, the “induction of CTLs specific to the peptide shown by SEQ ID NO: 19” value in series [2] (setting [8]) is given as “can induce CTLs”. In addition, in series [2] (splenocytes pulsed with SEQ ID NO: 88, 10 μg/mL), the “induction of CTLs specific to the peptide shown by SEQ ID NO: 88” value is “can induce CTLs”.
As a reminder, the thermodynamic solubility is solubility found after equilibrating the solid with the medium. As to `CSCC[C@H](NC(=O)CNC(=O)[C@H](CC(=O)O)NC(=O)[C@H](Cc1ccc(O)cc1)NC(=O)[C@H](CC(C)C)NC(=O)CNC(=O)[C@@H](N)CSSC[C@H](N)C(=O)N[C@H](C(=O)N[C@@H](CC(C)C)C(=O)N[C@@H](CCC(N)=O)C(=O)N[C@@H](CCC(=O)O)C(=O)N[C@@H](CC(C)C)C(=O)N[C@@H](CC(N)=O)C(=O)N[C@H](C(=O)N[C@H](C(=O)N[C@H](C(=O)O)C(C)C)[C@@H](C)O)C(C)C)C(C)C)C(=O)N[C@@H](CCC(=O)O)C(=O)N[C@@H](Cc1c[nH]cn1)C(=O)N[C@@H](CC(C)C)C(=O)O` [Example 110] (I: H-CGLYDGMEHL-OH / II: H-CVLQELNVTV-OH; disulfide I:1-II:1), in series [3] (setting [8]), the “induction of CTLs specific to the peptide shown by SEQ ID NO: 19” value is “can induce CTLs”. Also, the “induction of CTLs specific to the peptide shown by SEQ ID NO: 43” value in series [3] (splenocytes pulsed with SEQ ID NO: 43, 10 μg/mL) was “can induce CTLs”. Moreover, the thermodynamic solubility at 90 min in series [1] (pH 6) was 0.511 mg/mL (≈ 227 µM); in series [1] (pH 7.4), above 1 mg/mL.
With `CC[C@H](C)[C@H](NC(=O)[C@@H](N)CCCCN)C(=O)N[C@@H](Cc1ccccc1)C(=O)NCC(=O)N[C@@H](CO)C(=O)N[C@@H](CC(C)C)C(=O)N[C@@H](C)C(=O)N[C@@H](Cc1ccccc1)C(=O)N[C@@H](CC(C)C)C(=O)O` [SEQ ID NO: 53, reference compound], the figures for the solubility (thermodynamic) at 90 min in series [1] (pH 6) and in series [1] (pH 7.4) were 0.1 mg/mL (≈ 100 µM) and 0.123 mg/mL (≈ 124 µM), respectively.
Regarding H-ACVLQELNVTV-OH [Example 50], in series [4], the “formation rate of VLQELNVTV (SEQ ID NO: 43)” value is given as 1.8%.
In the case of H-CGLYDGMEHL-OH [Example 25], in series [5], the “formation rate(%) 1 hr later” value worked out at 95.1%, the “formation rate(%) 2 hr later” value was 106%, the “formation rate(%) 4 hr later” value stood at 100% and the “formation rate(%) 8 hr later” value is listed as 101%. Besides, in series [6], the “in vivo CTL induction ability (IFNγ ELISPOT)” value is reported as “has an in vivo CTL induction ability”.
As for H-CVLQELNVTV-OH [Example 21], in series [5], the “formation rate(%) 1 hr later” value turned out to be 83.4%, the “formation rate(%) 2 hr later” value was found to be 85.6%, the “formation rate(%) 4 hr later” value is recorded as 78.8% and the “formation rate(%) 8 hr later” value was found to be 83.9%. The “in vivo CTL induction ability (IFNγ ELISPOT)” value in series [6] is “has an in vivo CTL induction ability”.
On to H-GCVLQELNVTV-OH [Example 56], for which the “formation rate of VLQELNVTV (SEQ ID NO: 43)” value in series [4] is on record as 1.1%.
For H-GLYDGMEHL-OH [SEQ ID NO: 19], the solubility (thermodynamic) at 90 min in series [7] (pH 6) and in series [7] (pH 7.4) was above 1 mg/mL each time.
With H-SCVLQELNVTV-OH [Example 64], the “formation rate of VLQELNVTV (SEQ ID NO: 43)” value in series [4] amounted to 1.3%.
As for H-VYGFVRACL-OH [SEQ ID NO: 87], the solubility (thermodynamic) at 90 min in series [7] (pH 6) and in series [7] (pH 7.4) was above 1 mg/mL throughout.
Regarding H-YCVLQELNVTV-OH [Example 67], the “formation rate of VLQELNVTV (SEQ ID NO: 43)” value in series [4] is 0.7%.
